Where a SMILES comes first, the peptide text is derived from it. Where no end group is shown, it is not given here.
What was measured:
[1] = biological target: T1, GPIb (Homo sapiens, UniProt P07359); assay: Inhibition of ristocetin-induced binding of 125I-vWF to formalin-fixed platelets by peptides; settings: formalin-fixed platelets 1 x 10¹¹/liter, 125I-vWF 5 micrograms/ml, ristocetin 1.0 mg/ml, 30 minutes room temperature; read-out: IC₅₀ (concentration of peptide which inhibited binding by 50%)
T1 construct: endogenous in cells; host or cells: fresh or formalin-fixed platelets
Procedure: To test the inhibition of ristocetin-induced binding of vWF to platelets by peptides, formalin-fixed platelets were used at a final concentration of 1 x 10¹¹/liter. Peptides to be tested were then added at various concentrations. One third final volume of vWF deficient plasma was then added followed by ¹²⁵I-vWF a final concentration of 5 micrograms/ml. Ristocetin was then added at a concentration of 1.0 mg/ml. After incubation for 30 minutes at room temperature bound and free ligand were separated by centrifuging 50 microliters of the mixture through 300 microliters of 20% sucrose at 12,000 x g for 4 minutes. The platelet pellet was then separated from the rest of the mixture to determine platelet-bound radioactivity. Nonspecific binding was defined as the residual binding of ¹²⁵I-vWF in the presence of a 50-fold excess of unlabeled vWF but in the absence of any peptides.
(§1) Percent inhibition with a given peptide was calculated by dividing the specific cpm in the absence of peptide. The IC₅₀'s (concentration of peptide which inhibited binding by 50%) for the peptides tested were as follows: […]

[2] = biological target: T1, GPIb; assay: Inhibition of 125I-asialo-vWF binding to fresh platelets by peptides
Procedure: To test the inhibitions of asialo-vWF binding to platelets, fresh platelets were used. These were prepared by drawing blood into 11 millimolar trisodium citrate and 2 millimolar EDTA. Platelet-rich plasma was then prepared by differential centrifugation. The platelet count was then adjusted to 1 x 10¹¹/liter. Peptides were then added to various concentrations and ¹²⁵I-asialo-vWF was then added at a final concentration of 5 micrograms/ml. After incubation for 30 minutes at room temperature bound and free ligand were separated by centrifuging 50 microliters of the mixture through 300 microliters of 20% sucrose at 12,000 x g for 4 minutes. The platelet pellet was then separated from the rest of the mixture to determine platelet-bound radioactivity. Non-specific binding was defined as the residual binding of ¹²⁵I-asialo-vWF in the presence of a 50-fold excess of unlabeled vWF but in the absence of any peptides.
as §1, with “dividing the specific cpm obtained when various concentrations of peptide were added by” for “dividing”

[3] = fresh platelets 1 x 10¹¹/liter, 125I-asialo-vWF 5 micrograms/ml, 30 minutes room temperature, read-out: IC₅₀ (concentration of peptide which inhibited binding by 50%)

T1 sequence (P07359 17-652): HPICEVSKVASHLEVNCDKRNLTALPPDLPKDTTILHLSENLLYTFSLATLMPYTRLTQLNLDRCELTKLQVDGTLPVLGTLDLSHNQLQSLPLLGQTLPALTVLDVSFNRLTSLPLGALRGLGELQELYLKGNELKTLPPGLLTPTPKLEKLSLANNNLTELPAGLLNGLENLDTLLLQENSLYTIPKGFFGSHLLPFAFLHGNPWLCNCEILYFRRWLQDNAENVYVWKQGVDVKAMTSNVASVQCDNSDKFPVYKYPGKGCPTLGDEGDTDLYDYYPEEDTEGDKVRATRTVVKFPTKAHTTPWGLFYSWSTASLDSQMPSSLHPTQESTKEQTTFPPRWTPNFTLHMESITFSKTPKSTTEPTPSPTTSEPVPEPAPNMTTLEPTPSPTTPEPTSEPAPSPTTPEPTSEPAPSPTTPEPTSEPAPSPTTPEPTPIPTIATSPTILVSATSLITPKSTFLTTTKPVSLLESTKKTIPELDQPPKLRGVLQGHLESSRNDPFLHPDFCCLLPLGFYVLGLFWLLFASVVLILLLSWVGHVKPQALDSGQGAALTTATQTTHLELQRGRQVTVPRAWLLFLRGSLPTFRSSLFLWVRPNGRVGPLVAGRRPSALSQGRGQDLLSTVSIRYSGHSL
T1 sequence (P13224 26-206 partner): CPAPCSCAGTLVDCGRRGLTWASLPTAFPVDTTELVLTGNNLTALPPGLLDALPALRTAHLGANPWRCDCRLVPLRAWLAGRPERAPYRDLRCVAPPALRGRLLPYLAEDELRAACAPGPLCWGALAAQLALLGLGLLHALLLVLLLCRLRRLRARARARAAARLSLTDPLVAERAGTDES
T1 sequence (P14770 17-177 partner): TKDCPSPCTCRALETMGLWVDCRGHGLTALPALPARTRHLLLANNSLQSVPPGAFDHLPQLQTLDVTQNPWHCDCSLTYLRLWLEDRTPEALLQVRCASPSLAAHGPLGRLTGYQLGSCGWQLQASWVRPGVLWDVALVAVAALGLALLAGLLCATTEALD

N=C(N)NCCC[C@H](NC(=O)[C@H](CCCCN)NC(=O)[C@H](CCCNC(=N)N)NC(=O)[C@@H](N)CCCCN)C(=O)O [(KR)₂] (H-KRKR-OH)
IC50 [1]: 200 µM

KRKRKR [(KR)₃]
IC50 [1]: 120 µM
IC50 [2, 3]: 23 µM

KRKRKRKRGDV [(KR)₄GDV]
IC50 [1]: 16 µM
IC50 [2, 3]: 15 µM

RRRRRRRRGDV [(R)₈GDV]
IC50 [1]: 6 µM
IC50 [2]: 3.5 µM

YRGDV [YRGDV, reference compound]
IC50 [1]: > 600 µM

Reference: patent EP0317278A2, “Proteolytic fragments and synthetic peptides that block the binding of von Willebrand factor to the platelet membrane glycoprotein Ib” (SCRIPPS CLINIC AND RESEARCH FOUNDATION, priority 1987, dated 1989)
